From patent US20230312491A1, “N-SUBSTITUTED 4-(5-PHENYL-1,3,4-OXADIAZOL-2-YL)ANILINE FOR THE TREATMENT AND PROPHYLAXIS OF HEPATITIS B VIRUS INFECTION” (priority 2020, published 2023)

Columns and labels:
Type in all cases: cell-based
[1] = system: HBsAg; assay: PHH natural infection assay, HBsAg (alphalisa); details: Hepatitis B virus, Hepatocyte, 72 h, read-out: HBsAg IC50
Method: (§1) Detailed procedures regarding primary human hepatocyte (PHH) HBV natural infection assay are described as below. One tube of frozen PHH (10 million cells) is thawed in 37° C. water bath and then transferred to 20 mL of PHH thawing medium (Sigma, InVitroGRO HT Medium, Cat. S03319) with gently mixing. The cells were then centrifuged at […] for 5 min, the supernatant was discarded and the tube was refilled with 25 mL of PHH plating medium (Sigma, InVitroGRO CP Medium, Cat. S03317). The tube was shaken very gently to re-suspend all cells, and then 50 µl of cells were transferred to each well 384-well collagen I coated plate with appropriate liquid handling equipment, e.g. Integra VIAFLO384 or Agilent Bravo. The cells were then cultured for 24 hours in a cell incubator. For HBV infection, after PHH attachment on the culture plate, the plating medium was removed and replenished with PHH culture medium containing HBV virus. The PHH culture medium was prepared with Dulbecco’s Modified Eagle Medium (DMEM)/F12 (1: 1 in volume ratio) containing 10% fetal bovine serum (Gibco, Cat.10099141), 5 ng/mL human epidermal growth factor (Gibco, Cat.PHG0311L), 20 ng/mL dexamethasone (Sigma, Cat.D4902-100 mg), 250 ng/mL human recombinant insulin (Gibco, Cat.41400045) and 100 U/mL penicillin. HBV virus at 200 genome equivalent (GE) per cell with 4% PEG8000 (Sigma, Cat.P1458) containing culture medium were added to the PHH culture medium for infection. The cells were then cultured for 24 hours in cell incubator. Then the cell culture supernatant was removed. The HBV-infected PHH were cultured with sandwich culture method with PHH culture medium containing 1% DMSO and 0.25 mg/mL matrix gel for 72 hours. The supernatant was then refreshed with PHH culture medium containing different concentrations of testing compounds for two times with 72-hour interval. At the end of treatment, the supernatant was collected for viral markers measurements, including HBsAg, HBeAg, HBV DNA and cytotoxicity. HBsAg and HBeAg were detected using alphalisa method using their specific antibodies. For HBV DNA detection, HBV DNA Quantitative Fluorescence Diagnostic Kit (Sansure Biotech Inc.) was used following the manufacture’s protocol. Cytotoxicity was determined using Cell Counting Kit-8 (CCK8, Dojindo Molecular Technologies, Inc.).
(§2) The compounds of the present invention were tested for their capacity to inhibit HBsAg and HBeAg as described herein.

[2] = PHH natural infection assay, cytotoxicity (Cell Counting Kit-8); details: HBV-infected primary human hepatocytes, CCK8
Method: as §1

[3] = system: HBeAg; assay: PHH natural infection assay, HBeAg (alphalisa); details: Hepatitis B virus, Hepatocyte, 72 h, read-out: HBeAg IC50
Method: as §1, §2

**Q.** Which IC50 [1] does the source give for `CN(C)c1ccc(-c2nnc(-c3ccccc3)o2)cc1` [Example 33, N,N-dimethyl-4-(5-phenyl-1,3,4-oxadiazol-2-yl)aniline] here?
**A.** The IC50 was 7.69 µM.

**Q.** And the CC50 at 144 h [2]?
**A.** Its CC50 at 144 h is > 100 µM.

**Q.** What about the IC50 [3] of the same molecule?
**A.** The IC50 was 91.7 µM.
